Series [1] is described as follows: Dissociation constant, pKa of the compound. Type of series: physicochemical.
A short description of series [2]: Partition coefficient, logP of the compound. In kind it is physicochemical. The note with it: octanol/water.
Series [3] can be described thus: Volume of distribution in Sprague-Dawley rat at 2 mg/kg, iv. Type of series: ADME, organism-based. Also noted: dose 2 mg/kg, route intravenous. The note with it: in vivo, read-out: Vdss.
Series [4] can be described thus: Tmax in Sprague-Dawley rat at 30 mg/kg, po. In kind it is ADME, organism-based. Also noted: dose 30 mg/kg, route oral. The note with it: in vivo.
A short description of series [5]: Cmax in Sprague-Dawley rat at 30 mg/kg, po. In kind it is ADME, organism-based. Further details: dose 30 mg/kg, route oral. The note with it: in vivo.
The nature of series [6]: AUC in Sprague-Dawley rat at 2 mg/kg, iv. Type of series: ADME, organism-based. Also noted: dose 2 mg/kg, route intravenous. The conditions noted are these: plasma.
Series [7] can be described thus: AUC in Sprague-Dawley rat at 30 mg/kg, po. In kind it is ADME, organism-based. Further details: dose 30 mg/kg, route oral. The note with it: plasma.
Series [8] in a line: Oral bioavailability in Sprague-Dawley rat at 30 mg/kg, po. In kind it is ADME, organism-based. The note with it: in vivo.
Series [9] in a line: Stability in chimp liver S9 fraction after 30 mins. Type of series: ADME, Pan troglodytes. The note with it: chimpanzee, read-out: Stability.
A short description of series [10]: Stability in human liver S9 fraction after 30 mins. In kind it is ADME, organism-based. The note with it: read-out: Stability.
Series [11] in a line: Clearance in Beagle dog at 2 mg/kg, iv. In kind it is ADME, organism-based, Canis lupus familiaris. Also noted: dose 2 mg/kg, route intravenous. The note with it: in vivo.
A short description of series [12]: Half life in Beagle dog at 2 mg/kg, iv. In kind it is ADME, organism-based, Canis lupus familiaris. Further details: dose 2 mg/kg, route intravenous. The conditions noted are these: in vivo.
A short description of series [13]: Half life in Beagle dog at 10 mg/kg, po. In kind it is ADME, organism-based, Canis lupus familiaris. Further details: dose 10 mg/kg, route oral. The note with it: in vivo.
The nature of series [14]: Volume of distribution in Beagle dog at 2 mg/kg, iv. The note with it: in vivo, read-out: Vdss. In kind it is ADME, organism-based, Canis lupus familiaris. Further details: dose 2 mg/kg, route intravenous.
Series [15] can be described thus: Tmax in Beagle dog at 10 mg/kg, po. In kind it is ADME, organism-based, Canis lupus familiaris. Also noted: dose 10 mg/kg, route oral. The note with it: in vivo.
Series [16] is described as follows: Cmax in Beagle dog at 10 mg/kg, po. The conditions noted are these: in vivo. Type of series: ADME, organism-based, Canis lupus familiaris. Also noted: dose 10 mg/kg, route oral.
Series [17] in a line: AUC in Beagle dog at 2 mg/kg, iv. Further details: dose 2 mg/kg, route intravenous. Type of series: ADME, organism-based, Canis lupus familiaris. The note with it: plasma.
Series [18] is described as follows: AUC in Beagle dog at 10 mg/kg, po. Type of series: ADME, organism-based, Canis lupus familiaris. Also noted: dose 10 mg/kg, route oral. The conditions noted are these: plasma.
A short description of series [19]: Oral bioavailability in Beagle dog at 10 mg/kg, po. Type of series: ADME, organism-based, Canis lupus familiaris. The conditions noted are these: in vivo.
Series [20] in a line: Clearance in Sprague-Dawley rat at 2 mg/kg, iv. The note with it: in vivo. Also noted: dose 2 mg/kg, route intravenous. In kind it is ADME, organism-based.
The nature of series [21]: Half life in Sprague-Dawley rat at 2 mg/kg, iv. In kind it is ADME, organism-based. Further details: dose 2 mg/kg, route intravenous. The note with it: in vivo.
The nature of series [22]: Half life in Sprague-Dawley rat at 30 mg/kg, po. Type of series: ADME, organism-based. Also noted: dose 30 mg/kg, route oral. The conditions noted are these: in vivo.
A short description of series [23]: Clearance in Beagle dog at 0.5 mg/kg, iv. Type of series: ADME, organism-based, Canis lupus familiaris. Also noted: dose 0.5 mg/kg, route intravenous. The conditions noted are these: in vivo.
The nature of series [24]: Half life in Beagle dog at 0.5 mg/kg, iv. The conditions noted are these: in vivo. In kind it is ADME, organism-based, Canis lupus familiaris. Also noted: dose 0.5 mg/kg, route intravenous.
Series [25] can be described thus: Half life in Beagle dog at 1 mg/kg, po. In kind it is ADME, organism-based, Canis lupus familiaris. Also noted: dose 1 mg/kg, route oral. The conditions noted are these: in vivo.
Series [26] in a line: Volume of distribution in Beagle dog at 0.5 mg/kg, iv. Type of series: ADME, organism-based, Canis lupus familiaris. Further details: dose 0.5 mg/kg, route intravenous. The conditions noted are these: in vivo, read-out: Vdss.
Series [27] in a line: Tmax in Beagle dog at 1 mg/kg, po. Further details: dose 1 mg/kg, route oral. Type of series: ADME, organism-based, Canis lupus familiaris. The conditions noted are these: in vivo.
Series [28] can be described thus: Cmax in Beagle dog at 1 mg/kg, po. In kind it is ADME, organism-based, Canis lupus familiaris. Also noted: dose 1 mg/kg, route oral. The note with it: in vivo.
A short description of series [29]: AUC in Beagle dog at 0.5 mg/kg, iv. Further details: dose 0.5 mg/kg, route intravenous. Type of series: ADME, organism-based, Canis lupus familiaris. The note with it: plasma.
Series [30] is described as follows: AUC in Beagle dog at 1 mg/kg, po. In kind it is ADME, organism-based, Canis lupus familiaris. Further details: dose 1 mg/kg, route oral. The note with it: plasma.
The nature of series [31]: Oral bioavailability in Beagle dog at 1 mg/kg, po. In kind it is ADME, organism-based, Canis lupus familiaris. The note with it: in vivo.
Series [32] is described as follows: Clearance in Sprague-Dawley rat at 3.3 mg/kg, iv. In kind it is ADME, organism-based. Also noted: dose 3.3 mg/kg, route intravenous. The conditions noted are these: in vivo.
Series [33] can be described thus: Half life in Sprague-Dawley rat at 3.3 mg/kg, iv. Type of series: ADME, organism-based. Also noted: dose 3.3 mg/kg, route intravenous. The note with it: in vivo.
A short description of series [34]: Half life in Sprague-Dawley rat at 6.7 mg/kg, po. In kind it is ADME, organism-based. Also noted: dose 6.7 mg/kg, route oral. The note with it: in vivo.
A short description of series [35]: Volume of distribution in Sprague-Dawley rat at 3.3 mg/kg, iv. Type of series: ADME, organism-based. Also noted: dose 3.3 mg/kg, route intravenous. The conditions noted are these: in vivo, read-out: Vdss.
The nature of series [36]: Tmax in Sprague-Dawley rat at 6.7 mg/kg, po. In kind it is ADME, organism-based. Also noted: dose 6.7 mg/kg, route oral. The conditions noted are these: in vivo.
Series [37] can be described thus: Cmax in Sprague-Dawley rat at 6.7 mg/kg, po. Also noted: dose 6.7 mg/kg, route oral. The conditions noted are these: in vivo. In kind it is ADME, organism-based.
For series [38], the system named is Rattus norvegicus. The series is described as follows: AUC in Sprague-Dawley rat at 3.3 mg/kg, iv. Type of series: ADME, organism-based, Plasma. Further details: dose 3.3 mg/kg, route intravenous. The conditions noted are these: in vivo.
The nature of series [39]: Stability in rat liver S9 fraction after 30 mins. Type of series: ADME, organism-based. The conditions noted are these: read-out: Stability.
The nature of series [40]: Stability in dog liver S9 fraction after 30 mins. The conditions noted are these: read-out: Stability. Type of series: ADME, organism-based, Canis lupus familiaris.
Series [41] relates to Rattus norvegicus. The series is described as follows: AUC in Sprague-Dawley rat at 6.7 mg/kg, po. In kind it is ADME, organism-based, Plasma. Also noted: dose 6.7 mg/kg, route oral. The conditions noted are these: in vivo.
The subject of series [42] is Rattus norvegicus. The series is described as follows: Oral bioavailability in Sprague-Dawley rat at 6.7 mg/kg, po. Type of series: ADME, organism-based. The note with it: in vivo.

Structures are written as SMILES.

The term pKa denotes the pH at which an ionisable group is half protonated. Read a high pKa as a group that holds its proton tightly. The term logP denotes the decadic logarithm of the partition coefficient of the neutral form, usually between octanol and water. High values mean a more lipophilic compound, low ones a more hydrophilic compound. `Cc1cc(COc2ccc(C(=O)NC3(CC(=O)NO)CCCCC3)cc2)c2ccccc2n1` returned a pKa in series [1] of 10.1. The compound further registered a logP in series [2] of 1.62.
Taken in the same sequence, the figures for `Cc1cc(COc2ccc(C(=O)NC3(CC(=O)NO)CCN(C(C)(C)C)CC3)cc2)c2ccccc2n1` were 9 and 1.95.
Taken in the same sequence, the figures for `Cc1cc(COc2ccc(C(=O)NC3(CC(=O)NO)CCN(C4=NCCS4)CC3)cc2)c2ccccc2n1` were 7.23 and 2.78.
`Cc1cc(COc2ccc(C(=O)NC3(CC(=O)NO)CCN(CCF)CC3)cc2)c2ccccc2n1` returned a pKa in series [1] of 7.2. Besides, the logP in series [2] amounted to 2.7.
As to `Cc1cc(COc2ccc(C(=O)NC3(CC(=O)NO)CCN(CC(C)(C)C)CC3)cc2)c2ccccc2n1`, the pKa in series [1] stood at 7.75. Also, in series [2], the logP turned out to be 3.66.
For orientation: Tmax means the time from dosing to the highest level. The Cmax is the peak of the concentration-time curve. The AUC is concentration integrated over time. The low end stands for low exposure, the high end for high exposure. Usually bioavailability stands for the share of a dose that reaches the circulation, judged against a reference dose that is usually intravenous. Read a high bioavailability as much systemic uptake. The term clearance denotes a measure of how efficiently the substance is removed, as volume per time. By half-life is commonly meant the time in which the quantity being followed falls by half. For the compound `Cc1cc(COc2ccc(C(=O)NC3(CC(=O)NO)CCOCC3)cc2)c2ccccc2n1`, the Vd in series [3] turned out to be 0.7 L/kg; in series [14] it was 2.5 L/kg. In addition, the time to peak (Tmax) worked out at 0.4 h in series [4] and 0.75 h in [15]. Besides, the Cmax in [5] was found to be 3.75 µM; in [16] it was 4.49 µM. Besides, the AUC in [6] amounted to 2210 nM·h; in series [7] it was 4860 nM·h; in series [17] it was 1970 nM·h; in series [18], 7720 nM·h. Further, the bioavailability in series [8] came out at 15%; in series [19] it was 79%. In addition, the remaining at 0.5 h came to 36.7% in [9] and 83.8% in series [10]. In addition, the clearance in series [11] is 2.3 L/h/kg; in series [20], 1.6 L/h/kg. For the same compound, the half-life in series [12] is 4.2 h; in series [13], 4 h; in series [21], 0.3 h; in [22] it was 1.8 h.
`C#CC(C)(C)N1CCC(CC(=O)NO)(NC(=O)c2ccc(OCc3cc(C)nc4ccccc34)cc2)CC1` came in with a pKa in series [1] of 6.58. Moreover, the logP in [2] was found to be 3.43.
`Cc1cc(COc2ccc(C(=O)NC3(CC(=O)NO)CCNCC3)cc2)c2ccccc2n1` registered a pKa in [1] of 8.4. This compound also came in with a log partition coefficient (logP) in [2] of 2.13. In addition, the clearance is 0.3 L/h/kg in [23] and 0.6 L/h/kg in [32]. The half-life is 1.5 h in series [24], 2.1 h in [25], 2.1 h in [33] and 2.2 h in series [34]. The Vd in series [26] and in [35] was 0.3 L/kg in each case. The time of peak concentration (Tmax) worked out at 0.63 h in series [27] and 0.3 h in series [36]. Also, the results for the Cmax in [28] and in series [37] were 0.126 µM and 2.48 µM, respectively. The exposure (AUC) in series [29] was 2180 nM·h; in [30] it was 343 nM·h; in the series on Rattus norvegicus [38], 11359 nM·h; with Rattus norvegicus [41], 8358 nM·h. In addition, the bioavailability in series [31] amounted to 8%. In addition, the remaining at 0.5 h was 100% in [39], 100% in series [40], 100% in series [9] and 92% in series [10]. Also, in the series with Rattus norvegicus [42], the F is 17%.
Regarding `CCS(=O)(=O)CCN1CCC(CC(=O)NO)(NC(=O)c2ccc(OCc3cc(C)nc4ccccc34)cc2)CC1`, the pKa in series [1] amounted to 6.06. Besides, in [2], the logP worked out at 2.48.

The values above are taken from ChEMBL document CHEMBL1147697, “Synthesis and structure-activity relationship of a novel, achiral series of TNF-alpha converting enzyme inhibitors” (Bioorg Med Chem Lett, 2006).
